Assay results published in ChEMBL document CHEMBL1201862, “PubChem BioAssay data set” (2004).
Several values for one entry are separate records, joined by “and”; a condition that tells them apart may be missing. Identical values can stand only once.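 Grown in 96-well plates, cells were treated for 48 hours with each compound at five concentrations. Insufficient inhibition: endpoint recorded as highest concentration tested. GI50 is the concentration that inhibits growth by half.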 Activity calls are given as the source filed them. Cut-off read from the data, not from the text of the source: active = GI50 up to about 1.1 µM and inactive = higher.

Columns and labels:
Assay in all cases: NCI anticancer screen, dose series, 48 h
A549 = test system: A549
COLO 205 = test system: COLO 205
HCT-15 = test system: HCT-15
HL-60 = test system: HL-60
HOP-92 = test system: HOP-92
HT-29 = test system: HT-29
IGROV-1 = test system: IGROV-1
KM12 = test system: KM12
MCF7 = test system: MCF7
MDA-N = test system: MDA-N
MOLT-4 = test system: MOLT-4
OVCAR-3 = test system: OVCAR-3
OVCAR-4 = test system: OVCAR-4
PC-3 = test system: PC-3
RXF 393 = test system: RXF 393
SK-MEL-5 = test system: SK-MEL-5
SNB-19 = test system: SNB-19
T47D = test system: T47D
M14 = test system: M14

SMILES: N#CC12CNCC1CN=N2 (centres undefined)
- GI50 (A549): > 100 µM (inactive)
- GI50 (COLO 205): > 100 µM (inactive)
- GI50 (HCT-15): > 100 µM
- GI50 (HL-60): > 100 µM (inactive)
- GI50 (HOP-92): > 100 µM (inactive)
- GI50 (HT-29): > 100 µM (inactive)
- GI50 (IGROV-1): > 100 µM (inactive)
- GI50 (KM12): > 100 µM (inactive)
- GI50 (MCF7): > 100 µM (inactive)
- GI50 (MDA-N): > 100 µM (inactive)
- GI50 (MOLT-4): > 100 µM (inactive)
- GI50 (OVCAR-3): > 100 µM (inactive)
- GI50 (OVCAR-4): > 100 µM (inactive)
- GI50 (PC-3): > 100 µM (inactive)
- GI50 (RXF 393): > 100 µM (inactive)
- GI50 (SK-MEL-5): > 100 µM (inactive)
- GI50 (SNB-19): > 100 µM (inactive)
- GI50 (T47D): > 100 µM (inactive)

SMILES: O=C1c2c(c(-c3ccccc3)c(-c3ccccc3)c(-c3ccccc3)c2-c2ccccc2)C(=O)N1c1cccc(Br)c1
- GI50 (A549): > 100 µM (inactive)
- GI50 (COLO 205): > 100 µM (inactive)
- GI50 (HCT-15): > 100 µM
- GI50 (HL-60): > 100 µM (inactive)
- GI50 (HOP-92): > 100 µM (inactive)
- GI50 (IGROV-1): > 100 µM (inactive)
- GI50 (KM12): > 100 µM (inactive)
- GI50 (M14): 58.3 µM (inactive)
- GI50 (MOLT-4): > 100 µM (inactive)
- GI50 (OVCAR-3): > 100 µM (inactive)
- GI50 (OVCAR-4): > 100 µM (inactive)
- GI50 (RXF 393): > 100 µM (inactive)
- GI50 (SK-MEL-5): > 100 µM (inactive)
- GI50 (SNB-19): > 100 µM (inactive)

SMILES: COc1c2c(c(OC)c3c(=O)cc(C/C(=N/NC(=O)C[n+]4ccccc4)C(=O)Nc4cc(C)ccc4C)oc13)OCO2
- GI50 (A549): > 100 µM (inactive)
- GI50 (COLO 205): > 100 µM (inactive)
- GI50 (HCT-15): > 100 µM
- GI50 (HL-60): > 100 µM (inactive)
- GI50 (HOP-92): > 100 µM (inactive)
- GI50 (HT-29): > 100 µM (inactive)
- GI50 (IGROV-1): > 100 µM (inactive)
- GI50 (KM12): > 100 µM (inactive)
- GI50 (M14): > 100 µM (inactive)
- GI50 (MOLT-4): > 100 µM (inactive)
- GI50 (OVCAR-3): > 100 µM (inactive)
- GI50 (OVCAR-4): > 100 µM (inactive)
- GI50 (RXF 393): > 100 µM (inactive)
- GI50 (SK-MEL-5): > 100 µM (inactive)
- GI50 (SNB-19): > 100 µM (inactive)

SMILES: O=c1[nH]c2ccc(C(F)(F)F)cc2nc1C(F)(F)F
- GI50 (A549): 27.9 µM (inactive)
- GI50 (COLO 205): 17.1 µM (inactive)
- GI50 (HCT-15): 27.9 µM
- GI50 (HOP-92): 9.4 µM (inactive)
- GI50 (HT-29): 29.2 µM (inactive)
- GI50 (IGROV-1): 22.8 µM (inactive)
- GI50 (KM12): 22.8 µM (inactive)
- GI50 (M14): 31.9 µM (inactive)
- GI50 (MCF7): 23 µM (inactive)
- GI50 (MDA-N): 35.7 µM (inactive)
- GI50 (MOLT-4): 23.4 µM (inactive)
- GI50 (OVCAR-3): 14.9 µM (inactive)
- GI50 (OVCAR-4): 36.6 µM (inactive)
- GI50 (PC-3): 23.3 µM (inactive)
- GI50 (RXF 393): 5 µM (inactive)
- GI50 (SK-MEL-5): 17.2 µM (inactive)
- GI50 (SNB-19): 28 µM (inactive)
- GI50 (T47D): 13.2 µM (inactive)

SMILES: COc1cc(OC)c2c(c1)C(=O)C(CC(C)O)=CC2=O (centres undefined)
- GI50 (A549): 22.3 µM (inactive)
- GI50 (COLO 205): 18.6 µM (inactive)
- GI50 (HCT-15): 14.6 µM
- GI50 (HL-60): 5.47 µM (inactive)
- GI50 (HOP-92): 11.1 µM (inactive)
- GI50 (HT-29): 19.1 µM (inactive)
- GI50 (IGROV-1): 18.2 µM (inactive)
- GI50 (KM12): 19.5 µM (inactive)
- GI50 (M14): 18.5 µM (inactive)
- GI50 (MOLT-4): 3.89 µM (inactive)
- GI50 (OVCAR-3): 5.82 µM (inactive)
- GI50 (OVCAR-4): 17.8 µM (inactive)
- GI50 (RXF 393): 12.7 µM (inactive)
- GI50 (SK-MEL-5): 14.7 µM (inactive)
- GI50 (SNB-19): 17.7 µM (inactive)

SMILES: COc1c(CC(C)=O)ccc2c1C(=O)c1ccc(C=O)c(OC(C)=O)c1C2=O
- GI50 (A549): 31.8 µM (inactive)
- GI50 (COLO 205): 16.1 µM (inactive)
- GI50 (HCT-15): 5.57 µM
- GI50 (HL-60): 5.06 µM (inactive)
- GI50 (HOP-92): 18.9 µM (inactive)
- GI50 (HT-29): 13.9 µM (inactive)
- GI50 (IGROV-1): 18.9 µM (inactive)
- GI50 (KM12): 14.6 µM (inactive)
- GI50 (M14): 12 µM (inactive)
- GI50 (MOLT-4): 11.4 µM (inactive)
- GI50 (OVCAR-3): 13.1 µM (inactive)
- GI50 (OVCAR-4): 14.6 µM (inactive)
- GI50 (RXF 393): 4.09 µM (inactive)
- GI50 (SK-MEL-5): 14.1 µM (inactive)
- GI50 (SNB-19): 19.9 µM (inactive)

SMILES: CC(=O)N1c2ccccc2N(C(C)=O)C1c1ccc(C2N(C(C)=O)c3ccccc3N2C(C)=O)[nH]1
- GI50 (A549): > 100 µM (inactive)
- GI50 (COLO 205): > 100 µM (inactive)
- GI50 (HCT-15): > 100 µM
- GI50 (HL-60): > 100 µM (inactive)
- GI50 (HOP-92): > 100 µM (inactive)
- GI50 (HT-29): > 100 µM (inactive)
- GI50 (IGROV-1): > 100 µM (inactive)
- GI50 (KM12): > 100 µM (inactive)
- GI50 (M14): > 100 µM (inactive)
- GI50 (MOLT-4): > 100 µM (inactive)
- GI50 (OVCAR-3): > 100 µM (inactive)
- GI50 (OVCAR-4): > 100 µM (inactive)
- GI50 (RXF 393): > 100 µM (inactive)
- GI50 (SK-MEL-5): > 100 µM (inactive)
- GI50 (SNB-19): > 100 µM (inactive)

SMILES: O=C1/C(=C/c2cccc([N+](=O)[O-])c2)Sc2scc(-c3ccc([N+](=O)[O-])cc3)[n+]21
- GI50 (A549): 29.6 µM (inactive)
- GI50 (COLO 205): 36.7 µM (inactive)
- GI50 (HCT-15): 14.5 µM
- GI50 (HOP-92): 24.5 µM (inactive)
- GI50 (HT-29): 17.4 µM (inactive)
- GI50 (IGROV-1): 18.6 µM (inactive)
- GI50 (KM12): 15.2 µM (inactive)
- GI50 (M14): 60.8 µM (inactive)
- GI50 (MCF7): 24.7 µM (inactive)
- GI50 (MDA-N): 24.5 µM (inactive)
- GI50 (MOLT-4): 21.1 µM (inactive)
- GI50 (OVCAR-3): 31.6 µM (inactive)
- GI50 (OVCAR-4): 30.4 µM (inactive)
- GI50 (PC-3): 30.7 µM (inactive)
- GI50 (SK-MEL-5): 27.7 µM (inactive)
- GI50 (SNB-19): 18.9 µM (inactive)
- GI50 (T47D): 44.9 µM (inactive)

SMILES: CCN1C(=O)C(=CN)C(=O)N(CC)C1=O
- GI50 (A549): > 100 µM (inactive)
- GI50 (COLO 205): > 100 µM (inactive)
- GI50 (HCT-15): > 100 µM
- GI50 (HL-60): > 100 µM (inactive)
- GI50 (HOP-92): 38.8 µM (inactive)
- GI50 (HT-29): > 100 µM (inactive)
- GI50 (IGROV-1): > 100 µM (inactive)
- GI50 (KM12): > 100 µM (inactive)
- GI50 (M14): > 100 µM (inactive)
- GI50 (MOLT-4): > 100 µM (inactive)
- GI50 (OVCAR-3): > 100 µM (inactive)
- GI50 (OVCAR-4): > 100 µM (inactive)
- GI50 (RXF 393): > 100 µM (inactive)
- GI50 (SK-MEL-5): > 100 µM (inactive)
- GI50 (SNB-19): > 100 µM (inactive)

SMILES: CN1C(OCc2ccccc2)c2c(ccc3c2OCO3)C2C=Cc3cc4c(cc3C21)OCO4 (centres undefined)
- GI50 (A549): 1.49 µM (inactive)
- GI50 (COLO 205): 1.02 µM (active)
- GI50 (HCT-15): 0.597 µM
- GI50 (HL-60): 0.226 µM (active)
- GI50 (HOP-92): 1.08 µM (active)
- GI50 (HT-29): 0.375 µM (active)
- GI50 (IGROV-1): 0.792 µM (active)
- GI50 (KM12): 1.01 µM (active)
- GI50 (M14): 0.885 µM (active)
- GI50 (MOLT-4): 0.223 µM (active)
- GI50 (OVCAR-3): 0.69 µM (active)
- GI50 (OVCAR-4): 1.69 µM (inactive)
- GI50 (RXF 393): 1.1 µM (active)
- GI50 (SK-MEL-5): 1.31 µM (inactive)
- GI50 (SNB-19): 1.69 µM (inactive)

SMILES: COC(=O)CCC(NC(=S)N/N=C(\C)c1ccccn1)C(=O)OC (centres undefined)
- GI50 (A549): 66.8 µM (inactive)
- GI50 (COLO 205): 30 µM (inactive)
- GI50 (HCT-15): 40.9 µM
- GI50 (HL-60): 18.5 µM (inactive)
- GI50 (HOP-92): 41.7 µM (inactive)
- GI50 (HT-29): > 100 µM (inactive)
- GI50 (IGROV-1): 82.8 µM (inactive)
- GI50 (KM12): 91.6 µM (inactive)
- GI50 (M14): 31.6 µM (inactive)
- GI50 (MOLT-4): 24.2 µM (inactive)
- GI50 (OVCAR-3): 38.8 µM (inactive)
- GI50 (OVCAR-4): > 100 µM (inactive)
- GI50 (RXF 393): 35 µM (inactive)
- GI50 (SK-MEL-5): 40.5 µM (inactive)
- GI50 (SNB-19): > 100 µM (inactive)

SMILES: COc1cccc2c1C(=O)c1c(O)c3c(c(O)c1C2=O)C[C@@](O)(C(=O)CO)C[C@@H]3OC1CC(N)C(O)C(C)O1 (some centres undefined)
- GI50 (A549): 74.1 nM (active) and 80.2 nM (active)
- GI50 (HL-60): 60.5 nM (active) and 57 nM (active)
- GI50 (HT-29): 312 nM (active) and 187 nM (active)
- GI50 (KM12): 254 nM (active) and 366 nM (active)
- GI50 (MCF7): 0.0169 µM (active)
- GI50 (MOLT-4): 16.9 nM (active) and 10 nM (active)
- GI50 (OVCAR-3): 394 nM (active) and 474 nM (active)
- GI50 (OVCAR-4): 1.16 µM (inactive) and 671 nM (active)
- GI50 (PC-3): 237 nM (active) and 255 nM (active)
- GI50 (SK-MEL-5): 114 nM (active) and 72.8 nM (active)
- GI50 (SNB-19): 54.3 nM (active) and 92 nM (active)
- GI50 (T47D): 94.2 nM (active) and 94 nM (active)
